Laboratory results published in PMC5103216, “Novel Agonist Bioisosteres and Common Structure-Activity Relationships for The Orphan G Protein-Coupled Receptor GPR139” (Scientific Reports, 2016).

Assays:
Assay type in all cases: cell-based
GPR139 [1] = target: T1, GPR139 (Homo sapiens, UniProt Q6DWJ6); test: IP-One HTRF assay measuring Gq activation in CHO-139; details: IP-One HTRF assay, CHO-139, 20 mM LiCl
T1 sequence (Q6DWJ6 1-353): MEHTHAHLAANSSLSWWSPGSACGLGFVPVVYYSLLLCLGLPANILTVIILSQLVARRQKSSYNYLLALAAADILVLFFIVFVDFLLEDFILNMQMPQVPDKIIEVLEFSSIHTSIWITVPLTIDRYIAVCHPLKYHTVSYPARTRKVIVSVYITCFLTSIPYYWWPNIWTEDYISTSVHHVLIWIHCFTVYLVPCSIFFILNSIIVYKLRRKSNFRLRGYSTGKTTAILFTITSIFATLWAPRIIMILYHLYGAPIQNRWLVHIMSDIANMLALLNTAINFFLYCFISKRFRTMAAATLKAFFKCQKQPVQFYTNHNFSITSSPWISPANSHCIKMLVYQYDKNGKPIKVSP
Description: (§1) Figure 3 IP-One HTRF® assay measuring Gq activation. Concentration-response curves of 1a, 7c (racemic), L-Trp, L-Phe, DL43, DL126, DL24, DL22, DL132 and DL130 on (A) CHO-139 and (B) CHO-M1 in the IP-One assay (final conc of LiCl = 20 mM). The dotted line represent the [IP1] response from (A) 10 μM 1a and (B) 1 μM carbachol, which is an agonist for the muscarinic acethylcholine receptor M1 that activates the Gq coupled pathway. The graphs are means ± SEM based on three independent experiments performed in triplicates.
(§2) The IP-One assay was performed as described in the work by Thomsen et al.[28], with few modifications. Breifly, CHO-139 and CHO-M1 were detached and re-suspended to a concentration of 10 million cells/mL. 5 μL 2x concentrated compound (+40 mM LiCl) and 5 μL cell suspension (50,000 cells/well) was mixed. The plate was sealed and incubated at 37 °C for 1 hour. Next, 10 μL detection reagents (lysis buffer containing 2.5% Eu^3+-anti-IP1 antibody and 2.5% IP1-d2) was added and the plate was incubated for 1 hour at room temperature. The plate was read on an Envision (PerkinElmer, Waltham, MA, USA). The time resolved-fluorescence resonance energy transfer (TR-FRET) 665 nm/615 nm ratio, which is inversely proportional to the inositol monophosphate (IP1) accumulation, was used to determine the concentration of the IP1 response.

M1 receptor = target: T2, M1 receptor (Homo sapiens, UniProt P11229); test: IP-One HTRF assay in CHO-M1 (control)
T2 construct: host or cells: CHO-k1
T2 sequence (P11229 1-460): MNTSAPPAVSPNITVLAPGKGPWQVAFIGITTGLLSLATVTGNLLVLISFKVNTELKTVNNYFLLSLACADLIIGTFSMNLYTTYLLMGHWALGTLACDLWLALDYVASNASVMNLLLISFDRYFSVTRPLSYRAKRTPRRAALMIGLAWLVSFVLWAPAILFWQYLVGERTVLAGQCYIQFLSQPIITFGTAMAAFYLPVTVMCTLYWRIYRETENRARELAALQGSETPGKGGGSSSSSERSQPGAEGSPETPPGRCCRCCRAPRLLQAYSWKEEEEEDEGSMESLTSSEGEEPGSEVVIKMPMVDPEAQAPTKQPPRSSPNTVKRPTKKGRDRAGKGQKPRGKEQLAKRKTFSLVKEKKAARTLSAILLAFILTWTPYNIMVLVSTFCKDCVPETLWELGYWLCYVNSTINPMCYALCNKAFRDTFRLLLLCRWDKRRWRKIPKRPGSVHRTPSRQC
Description: as §1, §2

GPR139 [2] = target: T1, GPR139; test: cAMP dynamic 2 assay measuring Gs activation in CHO-139
Description: The cAMP assay was performed as described in the work by Thomsen et al.[28] with few modifications. Breifly, CHO-139 and CHO-M1 was detached and resuspended to a concentration of 1 million cells/mL. 5 μL 2x concentrated compound (for Gs: +100 μM IBMX and for Gi: +100 μM IBMX +10 μM forskolin (Fsk)) and 5 μL cell suspension (5,000 cells/well) was mixed. The plate was sealed and incubated at room temperature for 30 min. Next, 10 μL detection reagents (lysis buffer containing 2.5% Eu^3+-anti-cAMP antibody and 2.5% cAMP-d2) was added and the plate was incubated for 1 hour at room temperature. The plate was read on an Envision (PerkinElmer, Waltham, MA, USA). The TR-FRET 665 nm/615 nm ratio, which is inversely proportional with the cAMP production, was used to determination the concentration of the cAMP response. […]
Supplementary Figure 1. cAMP dynamic 2 assay measuring Gs activation. 5,000 cells/well of CHO-139 (pink bars) or CHO-M1 (blue bars) cells are
incubated with the indicated compounds for 30 min at room temperature in the presence of 50 µM IBMX. 5 µM and 10 µM forskolin (Fsk) serves as positive
controls. The responses are one representative out of at two independent experiments performed in triplicates. Data points are means ± SD. […]
Data points are means ± SD.

SMILES | EC50 (GPR139 [1]) | IP1 response in CHO-M1 cells (M1 receptor) | Gs response (cAMP) (GPR139 [2])
O=C(CN1CCCc2ccccc21)NNC(=O)c1ccc2c(c1)OCO2 [DL22] | 4.18 µM | no response is seen in CHO-M1 cells | None of the tested compounds induced Gs response
COc1cc(OC)cc(C(=O)NNC(=O)C2CCCc3ccccc32)c1 (stereo not drawn) [DL24] | 0.75 µM | no response is seen in CHO-M1 cells | None of the tested compounds induced Gs response
CCn1c(C)nc2cc(C(=O)NNC(=O)Cc3cccc4ccccc34)ccc21 [DL43] | 9.57 µM | no response is seen in CHO-M1 cells | None of the tested compounds induced Gs response
O=C(Cc1cccc2ccccc12)NNC(=O)c1ccc2c(c1)OCO2 [DL126] | 5.62 µM | no response is seen in CHO-M1 cells | None of the tested compounds induced Gs response
O=C(CNC(=O)c1ccc2c(c1)OCO2)NC1CCSc2ccc(F)cc21 (stereo not drawn) [DL130] | 4.98 µM | no response is seen in CHO-M1 cells | None of the tested compounds induced Gs response
O=C(NCC(=O)N1CCCC1c1ccccc1)c1ccc2c(c1)OCO2 (stereo not drawn) [DL132] | 4.16 µM | no response is seen in CHO-M1 cells | None of the tested compounds induced Gs response
